Data from patent US20240190880A1 (THE REGENTS OF THE UNIVERSITY OF MICHIGAN, priority 2021, published 2024).
Like-named read-outs stand apart in the source and are kept apart here.

Molecular target: T1, ER (Homo sapiens, UniProt P03372)
T1 construct: host or cells: T47D and MCF7 human breast cancer cells
T1 sequence (P03372 1-595): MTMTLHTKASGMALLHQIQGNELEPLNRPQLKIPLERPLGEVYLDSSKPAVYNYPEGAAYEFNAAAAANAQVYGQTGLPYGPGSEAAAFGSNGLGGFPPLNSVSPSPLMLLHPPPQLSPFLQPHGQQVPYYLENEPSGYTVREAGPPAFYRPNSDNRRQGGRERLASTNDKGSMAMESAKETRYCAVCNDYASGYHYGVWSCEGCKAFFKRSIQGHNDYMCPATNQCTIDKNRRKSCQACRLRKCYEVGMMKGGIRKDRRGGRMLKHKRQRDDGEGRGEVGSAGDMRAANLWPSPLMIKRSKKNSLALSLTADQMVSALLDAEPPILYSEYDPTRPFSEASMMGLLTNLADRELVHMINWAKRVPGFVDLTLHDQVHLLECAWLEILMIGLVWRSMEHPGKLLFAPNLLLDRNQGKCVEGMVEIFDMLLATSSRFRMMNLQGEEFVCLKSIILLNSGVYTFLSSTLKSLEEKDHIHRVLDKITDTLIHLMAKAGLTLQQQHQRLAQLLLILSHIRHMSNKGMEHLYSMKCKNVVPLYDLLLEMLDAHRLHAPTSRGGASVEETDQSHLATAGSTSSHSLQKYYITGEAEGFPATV
Test: ER degradation activity, in-cell western blot analysis in T47D cells
Format: cell-based
How it was run: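 T47D cells grown in DMEM with 10% FBS were treated with compounds for 16 hours at 0.5% DMSO final. ER was detected by in-cell western using 680/800 near-infrared secondary antibodies. Residual ER is given as percent of untreated and DMSO-treated wells set to 100%.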

[1] = 16 hours, Table A does not say which cell line (T47D or MCF7), read-out: Potency (DC50)
[2] = compounds 16 hours, Table A does not say whether T47D or MCF7, read-out: Potency (DC50)

| Structure (SMILES) | DC50 [1] [nM] | DC50 [2] [nM] |
| --- | --- | --- |
| CN(CC1CN(c2ccc([C@@H]3c4ccc(O)cc4CC[C@@H]3c3ccccc3)cc2)C1)C1CCC(N2Cc3cc4c(cc3C2)C(=O)N(C2CCC(=O)NC2=O)C4=O)CC1 (stereo partly drawn) [E333, 2-(2,6-dioxopiperidin-3-yl)-6-(4-(((1-(4-((1R,2S)-6-hydroxy-2-phenyl-1,2,3,4-tetrahydronaphthalen-1-yl)phenyl)azetidin-3-yl)methyl)(methyl)amino)cyclohexyl)-6,7-dihydropyrrolo[3,4-f]isoindole-1,3(2H,5H)-dione] | > 100 | – |
| C[C@@H]1Cc2c([nH]c3ccccc23)[C@@H](c2cnc(N3CCC(C(=O)N4CCC(N5Cc6cc7c(cc6C5)C(=O)N(C5CCC(=O)NC5=O)C7=O)CC4)CC3)nc2)N1CC(F)F (stereo partly drawn) [E 260, 6-(1-(1-(5-((1R,3R)-2-(2,2-difluoroethyl)-3-methyl-2,3,4,9-tetrahydro-1H-pyrido[3,4-b]indol-1-yl)pyrimidin-2-yl)piperidine-4-carbonyl)piperidin-4-yl)-2-(2,6-dioxopiperidin-3-yl)-6,7-dihydropyrrolo[3,4-f]isoindole-1,3(2H,5H)-dione] | < 10 | – |
| C[C@@H]1Cc2c([nH]c3ccccc23)[C@@H](c2ccc(C3CCC(C(=O)N4CCC(N5Cc6cc7c(cc6C5)C(=O)N(C5CCC(=O)NC5=O)C7=O)CC4)CC3)cc2F)N1CC(F)F (stereo partly drawn) [E 312, 6-(1-(4-(4-((1R,3R)-2-(2,2-difluoroethyl)-3-methyl-2,3,4,9-tetrahydro-1H-pyrido[3,4-b]indol-1-yl)-3-fluorophenyl)cyclohexane-1-carbonyl)piperidin-4-yl)-2-(2,6-dioxopiperidin-3-yl)-6,7-dihydropyrrolo[3,4-f]isoindole-1,3(2H,5H)-dione] | 10 to 100 | – |
| C[C@@H]1Cc2c([nH]c3ccccc23)[C@@H](c2c(F)cc(CN3CCC4(CCC(C(=O)N5Cc6cc7c(cc6C5)C(=O)N(C5CCC(=O)NC5=O)C7=O)CC4)CC3)cc2F)N1CC(F)F (stereo partly drawn) [E 382, 6-(3-(4-((1R,3R)-2-(2,2-difluoroethyl)-3-methyl-2,3,4,9-tetrahydro-1H-pyrido[3,4-b]indol-1-yl)-3,5-difluorobenzyl)-3-azaspiro[5.5]undecane-9-carbonyl)-2-(2,6-dioxopiperidin-3-yl)-6,7-dihydropyrrolo[3,4-f]isoindole-1,3(2H,5H)-dione] | > 100 | – |
| O=C1CCC(N2C(=O)c3cc4c(cc3C2=O)CN(C(=O)C2CCC(CN3CCN(c5ccc([C@@H]6c7ccc(O)cc7CC[C@@H]6c6ccccc6)cc5)CC3)CC2)C4)C(=O)N1 (stereo partly drawn) [E 365, 2-(2,6-dioxopiperidin-3-yl)-6-(4-((4-(4-((1R,2S)-6-hydroxy-2-phenyl-1,2,3,4-tetrahydronaphthalen-1-yl)phenyl)piperazin-1-yl)methyl)cyclohexane-1-carbonyl)-6,7-dihydropyrrolo[3,4-f]isoindole-1,3(2H,5H)-dione] | > 100 | – |
| O=C1CCC(N2C(=O)c3cc4c(cc3C2=O)CN(C(=O)[C@H]2CC[C@@H](CN3CC(Nc5ccc([C@@H]6c7ccc(O)cc7CC[C@@H]6c6ccccc6)cc5)C3)CC2)C4)C(=O)N1 (stereo partly drawn) [E 364, 2-(2,6-dioxopiperidin-3-yl)-6-((1S,4s)-4-((3-((4-((1R,2S)-6-hydroxy-2-phenyl-1,2,3,4-tetrahydronaphthalen-1-yl)phenyl)amino)azetidin-1-yl)methyl)cyclohexane-1-carbonyl)-6,7-dihydropyrrolo[3,4-f]isoindole-1,3(2H,5H)-dione] | 10 to 100 | – |
| COc1cc([C@H]2CC[C@@H](C(=O)N3CCC(N4Cc5cc6c(cc5C4)C(=O)N(C4CCC(=O)NC4=O)C6=O)CC3)CC2)ncc1[C@@H]1c2[nH]c3ccccc3c2C[C@@H](C)N1CC(F)F (stereo partly drawn) [E 396, 6-(1-((1S,4s)-4-(5-((1R,3R)-2-(2,2-difluoroethyl)-3-methyl-2,3,4,9-tetrahydro-1H-pyrido[3,4-b]indol-1-yl)-4-methoxypyridin-2-yl)cyclohexane-1-carbonyl)piperidin-4-yl)-2-(2,6-dioxopiperidin-3-yl)-6,7-dihydropyrrolo[3,4-f]isoindole-1,3(2H,5H)-dione] | – | > 100 |
| O=C1CCC(N2C(=O)c3cc4c(cc3C2=O)CN(C(=O)[C@H]2CC[C@H](CN3CC(Oc5ccc([C@@H]6c7ccc(O)cc7CC[C@@H]6c6ccccc6)cc5)C3)CC2)C4)C(=O)N1 (stereo partly drawn) [E 310, 2-(2,6-dioxopiperidin-3-yl)-6-((1R,4r)-4-((3-(4-((1R,2S)-6-hydroxy-2-phenyl-1,2,3,4-tetrahydronaphthalen-1-yl)phenoxy)azetidin-1-yl)methyl)cyclohexane-1-carbonyl)-6,7-dihydropyrrolo[3,4-f]isoindole-1,3(2H,5H)-dione] | > 100 | – |
| C[C@@H]1Cc2cc(O)ccc2[C@H](c2ccc(C3=CCC4(CC3)CCN(C(=O)CN3Cc5cc6c(cc5C3)C(=O)N(C3CCC(=O)NC3=O)C6=O)CC4)cc2)N1CC(F)F (stereo partly drawn) [E 449, 6-(2-(9-(4-((1S,3R)-2-(2,2-difluoroethyl)-6-hydroxy-3-methyl-1,2,3,4-tetrahydroisoquinolin-1-yl)phenyl)-3-azaspiro[5.5]undec-8-en-3-yl)-2-oxoethyl)-2-(2,6-dioxopiperidin-3-yl)-6,7-dihydropyrrolo[3,4-f]isoindole-1,3(2H,5H)-dione] | – | > 100 |
| C[C@@H]1Cc2c([nH]c3ccccc23)[C@@H](c2c(F)cc(N3CCCC4(CCN(C(=O)CN5Cc6cc7c(cc6C5)C(=O)N(C5CCC(=O)NC5=O)C7)C4)C3)cc2F)N1CC(F)F (stereo partly drawn) [E 67, 3-(6-(2-(7-(4-((1R,3R)-2-(2,2-difluoroethyl)-3-methyl-2,3,4,9-tetrahydro-1H-pyrido[3,4-b]indol-1-yl)-3,5-difluorophenyl)-2,7-diazaspiro[4.5]decan-2-yl)-2-oxoethyl)-1-oxo-3,5,6,7-tetrahydropyrrolo[3,4-f]isoindol-2(1H)-yl)piperidine-2,6-dione] | 10 to 100 | – |
| O=C1CCC(N2C(=O)c3cc4c(cc3C2=O)CN(CC(=O)N2CCC3(CC2)CCN(c2ccc([C@@H]5c6ccc(O)cc6CC[C@@H]5C5CCC(F)(F)CC5)cc2)CC3)C4)C(=O)N1 (mixture of isomers) [E 178, Rac-6-(2-(9-(4-((1R,2R)-2-(4,4-difluorocyclohexyl)-6-hydroxy-1,2,3,4-tetrahydronaphthalen-1-yl)phenyl)-3,9-diazaspiro[5.5]undecan-3-yl)-2-oxoethyl)-2-(2,6-dioxopiperidin-3-yl)-6,7-dihydropyrrolo[3,4-f]isoindole-1,3(2H,5H)-dione] | 10 to 100 | – |
| CN(C1CN(c2ccc([C@@H]3c4ccc(O)cc4CC[C@@H]3c3ccccc3)cc2)C1)[C@H]1CC[C@H](C(=O)N2Cc3cc4c(cc3C2)C(=O)N(C2CCC(=O)NC2=O)C4)CC1 (single isomer, unassigned) [E 355] | > 100 | – |
| O=C1CCC(N2C(=O)c3cc4c(cc3C2=O)CN(CC(=O)N2CCC(Oc3ccc([C@@H]5c6ccc(O)cc6CC[C@@H]5c5ccccc5)cc3)CC2)C4)C(=O)N1 (stereo partly drawn) [E 219, 2-(2,6-dioxopiperidin-3-yl)-6-(2-(4-(4-((1R,2S)-6-hydroxy-2-phenyl-1,2,3,4-tetrahydronaphthalen-1-yl)phenoxy)piperidin-1-yl)-2-oxoethyl)-6,7-dihydropyrrolo[3,4-f]isoindole-1,3(2H,5H)-dione] | > 100 | – |
| O=C1CCC(N2C(=O)c3cc4c(cc3C2=O)CCN(C(=O)CN2CCC3(CC2)CCN(c2ccc([C@@H]5c6ccc(O)cc6CC[C@@H]5c5ccccc5)cc2)CC3)CC4)C(=O)N1 (stereo partly drawn) [E 167, 2-(2,6-dioxopiperidin-3-yl)-7-(2-(9-(4-((1R,2S)-6-hydroxy-2-phenyl-1,2,3,4-tetrahydronaphthalen-1-yl)phenyl)-3,9-diazaspiro[5.5]undecan-3-yl)acetyl)-6,7,8,9-tetrahydroazepino[4,5-f]isoindole-1,3(2H,5H)-dione] | > 100 | – |
